In ChEMBL document CHEMBL1145858, “Synthesis and structure-activity studies of novel orally active non-terpenoic 2,3-oxidosqualene cyclase inhibitors” (J Med Chem, 2003):

Key:
Lanosterol synthase [1] = biological target: T1, Lanosterol synthase (Homo sapiens, UniProt P48449)
T1 sequence (P48449 whole entry): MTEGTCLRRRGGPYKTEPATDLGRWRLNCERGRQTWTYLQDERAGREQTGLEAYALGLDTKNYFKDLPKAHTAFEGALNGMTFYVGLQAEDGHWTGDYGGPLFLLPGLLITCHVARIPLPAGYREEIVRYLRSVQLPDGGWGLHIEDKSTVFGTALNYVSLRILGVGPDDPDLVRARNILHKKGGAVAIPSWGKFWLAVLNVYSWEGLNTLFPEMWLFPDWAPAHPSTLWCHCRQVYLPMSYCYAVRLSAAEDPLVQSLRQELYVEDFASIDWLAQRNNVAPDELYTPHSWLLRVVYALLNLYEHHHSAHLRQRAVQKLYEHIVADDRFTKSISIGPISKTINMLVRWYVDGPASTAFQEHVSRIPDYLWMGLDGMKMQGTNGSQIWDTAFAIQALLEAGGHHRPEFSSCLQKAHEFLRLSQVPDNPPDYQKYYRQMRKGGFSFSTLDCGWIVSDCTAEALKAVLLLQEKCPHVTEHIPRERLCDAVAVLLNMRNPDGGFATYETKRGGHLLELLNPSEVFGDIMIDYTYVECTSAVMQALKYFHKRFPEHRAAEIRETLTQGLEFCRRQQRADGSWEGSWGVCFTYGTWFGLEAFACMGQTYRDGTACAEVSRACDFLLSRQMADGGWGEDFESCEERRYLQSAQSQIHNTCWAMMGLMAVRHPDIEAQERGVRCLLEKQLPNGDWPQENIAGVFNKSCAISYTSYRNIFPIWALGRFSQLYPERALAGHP

[2] = biological target: T2, Lanosterol synthase (Homo sapiens) (UniProt P48449); conditions: at 100 nM
T2 sequence (whole entry): T1 sequence (P48449 whole entry)

Cricetinae gen. sp. [3] = assay: […] effect on total plasma cholesterol(TC) level in fat-fed hamsters treated for 10 days at 200 umol/kg/day; type: functional, Cricetulus griseus
Cricetinae gen. sp. [4] = assay: […] effect on LDL cholesterol (LDL-C) level in fat-fed hamsters treated for 10 days at 200 umol/kg/day; type: functional, Cricetulus griseus
Lanosterol synthase [5] = biological target: T1, Lanosterol synthase; assay: In vitro inhibition of human 2,3-oxidosqualene cyclase.

| IC50 (Lanosterol synthase [1]) | Compound | LDL-C (Cricetinae gen. sp. [4]) | also measured |
| --- | --- | --- | --- |
| 6.2 nM | C=CCN(C)CCCCCCOc1ccc(C(=O)c2ccc(Br)cc2)c(SC)c1 |  |  |
| 8.7 nM | C=CCN(C)CCCCCCOc1ccc(C(=O)c2ccc(Br)cc2)cn1 |  |  |
| 7.8 nM | C=CCN(C)CCCCCCOc1ccc2c(c1)S(=O)(=O)N=C2c1ccc(Br)cc1 |  |  |
| 4.1 nM | C=CCN(C)CCCCCCOc1ccc(C(=O)c2ccc(Br)cc2)c(NC)c1 |  |  |
| 6.3 nM | C=CCN(C)CCCCCCOc1ccc(C(=O)c2ccc(Br)cc2)c(O)c1 |  |  |
| 5.6 nM | C=CCN(C)CCCCCCOc1ccc2c(-c3ccc(Br)cc3)csc2c1 |  |  |
| 15.7 nM | CN(CCCO)CCCCCCOc1ccc(C(=O)c2ccc(Br)cc2)cc1 |  | pKa (physchem): 9.05 |
| 4.6 nM | C=CCN(C)CCCCCCOc1ccc(C(=O)c2ccc(Br)cc2)c(OC)c1 |  |  |
| 11.4 nM | C=CCN(C)CCCCCCOc1ccc2c(c1)OCC=C2c1ccc(Br)cc1 |  |  |

Second part, the compound before the results:

| Compound | IC50 (Lanosterol synthase [1]) | LDL-C (Cricetinae gen. sp. [4]) | also measured |
| --- | --- | --- | --- |
| C=CCN(C)CCCCCCOc1ccc(-c2nsc3cc(Br)ccc23)cc1 |  |  | inhibition [2]: 5% |
| C=CCN(C)CCCCCCOc1ccc2c(-c3ccc(Br)cc3)nsc2c1.O=C(O)/C=C/C(=O)O |  | -33% | TC (Cricetinae gen. sp. [3]): -36% |
| C=CCN(C)CCCCCCOc1ccc2c(-c3ccc(Br)cc3)noc2c1 |  |  | inhibition [2]: 21% |
| C=CCN(C)CCCCCCOc1ccc2c(-c3ccc(Br)cc3)nccc2c1.Cl |  | -14% |  |
| Br.C=CCN(C)CCCCCCOc1ccc(C(=O)c2ccccc2)cc1 | 22.5 nM | -12% |  |
| C=CCN(C)CCCCCCOc1ccc(C(=O)c2ccc(Br)cc2)cc1.O=C(O)/C=C/C(=O)O |  | -25% | TC (Cricetinae gen. sp. [3]): -27%; pKa (physchem): 8.18 |
| C=CCN(C)CCCCCCOc1ccc2c(c1)CON=C2c1ccc(Br)cc1.O=C(O)/C=C/C(=O)O |  | -3% |  |
| C=CCN(C)CCCCCCOc1ccc(C(=O)c2ccc(Br)cc2)c(F)c1.O=C(O)/C=C/C(=O)O |  | -27% | TC (Cricetinae gen. sp. [3]): -41% |
| C=CCN(C)CCCCCCOc1ccc2c(-c3ccc(Br)cc3)coc2c1 |  |  | inhibition [2]: 14% |
| C=CCN(C)CCCCCCOc1ccc(C(=O)c2ccc(F)cc2)cc1.Cl | 6.7 nM | -24% | TC (Cricetinae gen. sp. [3]): -40% |
| C=CCN(C)CCCCCCOc1ccc(C(=O)c2ccc([N+](=O)[O-])cc2)cc1 |  |  | IC50 (Lanosterol synthase [5]): 1.9 nM |
| CN(CCCCCCOc1ccc(C(=O)c2ccc(Br)cc2)cc1)CC1CC1 |  |  | pKa (physchem): 9.37 |
| CN(CCCCCCOc1ccc(C(=O)c2ccc(Br)cc2)cc1)C1CC1 | 35.3 nM |  | pKa (physchem): 7.48 |
| C=CCN(C)CCCCCCOc1ccc2c(c1)CCN=C2c1ccc(Br)cc1 | 7.9 nM |  |  |
